{"source": "patent US5681833A", "about": "“Benzodiazepine derivatives” (Merck, Sharp & Dohme Ltd., priority 1992, dated 1997)", "key": {"CCK receptor (brain)": {"target": "T1, CCK receptor (brain) (Cavia porcellus, UniProt H0VZC5)", "T1 construct": "the cortex was removed and homogenized in 25 mL ice-cold 0.32M sucrose; from tissue; host or cells: cortex of male Hartley guinea pigs, P2 membranes", "T1 sequence (H0VZC5 1-426)": "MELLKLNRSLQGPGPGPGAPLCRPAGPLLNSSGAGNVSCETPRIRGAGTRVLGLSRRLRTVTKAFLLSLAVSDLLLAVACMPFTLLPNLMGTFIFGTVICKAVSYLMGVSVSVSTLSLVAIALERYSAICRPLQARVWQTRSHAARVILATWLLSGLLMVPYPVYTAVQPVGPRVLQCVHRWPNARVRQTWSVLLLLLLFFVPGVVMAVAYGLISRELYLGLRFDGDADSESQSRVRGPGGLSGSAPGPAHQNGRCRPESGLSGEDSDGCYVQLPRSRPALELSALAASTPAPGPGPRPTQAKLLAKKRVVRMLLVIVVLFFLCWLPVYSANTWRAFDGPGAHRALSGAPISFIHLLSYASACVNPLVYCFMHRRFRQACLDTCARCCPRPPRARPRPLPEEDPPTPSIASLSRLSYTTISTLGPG", "assay": "CCK Receptor Binding (Brain), inhibition of specific 125I-CCK-8 binding", "set-up": "species or system guinea pig (male Hartley)", "conditions": "guinea pig cortex membranes; 50 pM 125I-CCK-8; 25° C., 2 hours; pH 6.5; read-out: IC50 125I-CCK Brain", "experimental": "2. CCK Receptor Binding (Brain)\nCCK-8 sulphated was radiolabelled and the binding was performed according to the description for the pancreas method with minor modifications.\nMale Hartley guinea pigs (300-500 g) were sacrificed by decapitation and the cortex was removed and homogenized in 25 mL ice-cold 0.32M sucrose. The homogenates were centrifuged at 1000 g for 10 minutes and the resulting supernatant was recentrifuged at 20,000 g for 20 minutes. The P2 pellet was resuspended in binding assay buffer (20mM HEPES, 5 mM MgCl2, 0.25 mg/ml bacitracin, 1 mM EGTA pH 6.5 at 25° C.), using a Teflon (trademark) homogenizer (5 strokes at 500 rpm) to give a final concentration of 10 mg original wet weight/1.2 ml buffer. […] All assays were run in duplicate. The reaction mixtures were incubated at 25° C. for 2 hours and then the reaction was terminated by rapid filtration (Brandell 24 well cell harvester) on Whatman GF/C filters with 3×5 ml washes of cold 100 mM NaCl. The radioactivity on the filters was counted with a LKB gamma counter."}, "CCK receptor (pancreas)": {"target": "T2, CCK receptor (pancreas) (Rattus norvegicus, UniProt P30551)", "T2 construct": "The whole pancreas was dissected free of fat tissue and was homogenized; from tissue; host or cells: whole pancreas of male Sprague-Dawley rats, homogenate membranes", "T2 sequence (P30551 1-444)": "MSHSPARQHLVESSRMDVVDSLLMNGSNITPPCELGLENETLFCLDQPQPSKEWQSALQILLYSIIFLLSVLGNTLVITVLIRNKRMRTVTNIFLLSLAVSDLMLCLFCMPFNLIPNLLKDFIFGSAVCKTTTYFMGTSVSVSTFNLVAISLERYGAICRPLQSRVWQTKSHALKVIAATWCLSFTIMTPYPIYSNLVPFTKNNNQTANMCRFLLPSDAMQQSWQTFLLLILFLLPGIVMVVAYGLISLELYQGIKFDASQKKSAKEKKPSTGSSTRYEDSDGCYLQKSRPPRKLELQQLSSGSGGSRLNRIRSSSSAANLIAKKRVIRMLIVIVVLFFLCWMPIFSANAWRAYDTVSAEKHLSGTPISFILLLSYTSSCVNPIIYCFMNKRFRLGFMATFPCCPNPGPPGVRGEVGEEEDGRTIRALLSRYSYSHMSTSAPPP", "assay": "CCK Receptor Binding (Pancreas), inhibition of specific 125I-CCK-8 binding", "set-up": "species or system rat (male Sprague-Dawley)", "conditions": "rat pancreas membranes; 50 pM 125I-CCK-8; 25° C., 2 hours; pH 6.5; read-out: IC50 125I-CCK Pancreas", "experimental": "1. CCK Receptor Binding (Pancreas)\nCCK-8 sulphated was radiolabelled with ^125 I-Bolton Hunter reagent (2000 Ci/mmole). Receptor binding was performed according to Chang and Lotti (Proc. Natl. Acad. Sci. 83, 4923-4926, 1986) with minor modifications.\nMale Sprague-Dawley rats (150-200 g) were sacrificed by decapitation. The whole pancreas was dissected free of fat tissue and was homogenized in 25 volumes of ice-cold 10 mM N-2-hydroxyethyl-piperazine-N'-2-ethane sulphonic acid (HEPES) buffer with 0.1% soya bean trypsin inhibitor (pH 7.4 at 25° C.) with a Kinematica Polytron. The homogenates were centrifuged at 47,800 g for 10 min. Pellets were resuspended in 10 volumes of binding assay buffer (20 mM (HEPES)), 1 mM ethylene glycol-bis-(β-aminoethylether-N,N'-tetraacetic acid) (EGTA), 5 mM MgCl2, 150 mM NaCl, bacitracin 0.25 mg/ml, soya bean trypsin inhibitor 0.1 mg/ml, and bovine serum albumin 2 mg/ml pH 6.5 at 25° C.) using a Teflon (trademark) homogenizer, 15 strokes at 500 rpm. The homogenate was further diluted in binding assay buffer to give a final concentration of 0.5 mg original wet weight/1 ml buffer. […] All assays were run in duplicate. The reaction mixtures were incubated at 25° C. for 2 hours and the reaction terminated by rapid filtration (Brandell 24 well cell harvester) over Whatman GF/C filters, washing 3×4 mls with ice-cold 100 Mm NaCl. The radioactivity on the filters was counted with a LKB gamma counter."}}}
{"smiles": "CN1C(=O)[C@H](NC(=O)Nc2cccc(Nc3nnn[nH]3)c2)N=C(C2CCCCC2)c2ccccc21", "note": "[Example 5, (+)-N-[3(R)-5-Cyclohexyl-2,3-dihydro-1-methyl-2-oxo-1H-1,4-benzodiazepin-3-yl]-N'-[3-{(tetrazol-5-yl)amino}phenyl]urea]", "values": [{"measurement": "IC50", "setting": "CCK receptor (brain)", "value": 0.7, "unit": "nM"}, {"measurement": "IC50", "setting": "CCK receptor (pancreas)", "value": 200, "unit": "nM"}]}
